The record followed here is PubChem BioAssay AID1508599 (Sanford-Burnham Center for Chemical Genomics, 2020).

Where “and” joins values, the source holds several entries; their conditions need not be identical. Equal values may be shown once. Calls of active or inactive are those of the source.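 Rule for the calls: active = IC50 under 30000 nM, about half a log past the top tested dose; inactive = the rest.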

Usually IC50 stands for the point on the concentration scale where inhibition reaches its midpoint.

This assay deals with Baculoviral IAP repeat-containing protein 2 (Homo sapiens) (UniProt Q13490). Kind of assay: SMAC mimetics displacing peptide from cIAP1 – biochemical, SAR follow-up (AID 1508599). Conditions: cIAP1 BIR3 / rhodamine-SMAC peptide fluorescence polarization. (In general: Fluorescence polarisation rises when a labelled molecule tumbles more slowly, as on binding a larger partner.)
Sequence of Baculoviral IAP repeat-containing protein 2 (Homo sapiens) (Q13490 whole entry, looked up): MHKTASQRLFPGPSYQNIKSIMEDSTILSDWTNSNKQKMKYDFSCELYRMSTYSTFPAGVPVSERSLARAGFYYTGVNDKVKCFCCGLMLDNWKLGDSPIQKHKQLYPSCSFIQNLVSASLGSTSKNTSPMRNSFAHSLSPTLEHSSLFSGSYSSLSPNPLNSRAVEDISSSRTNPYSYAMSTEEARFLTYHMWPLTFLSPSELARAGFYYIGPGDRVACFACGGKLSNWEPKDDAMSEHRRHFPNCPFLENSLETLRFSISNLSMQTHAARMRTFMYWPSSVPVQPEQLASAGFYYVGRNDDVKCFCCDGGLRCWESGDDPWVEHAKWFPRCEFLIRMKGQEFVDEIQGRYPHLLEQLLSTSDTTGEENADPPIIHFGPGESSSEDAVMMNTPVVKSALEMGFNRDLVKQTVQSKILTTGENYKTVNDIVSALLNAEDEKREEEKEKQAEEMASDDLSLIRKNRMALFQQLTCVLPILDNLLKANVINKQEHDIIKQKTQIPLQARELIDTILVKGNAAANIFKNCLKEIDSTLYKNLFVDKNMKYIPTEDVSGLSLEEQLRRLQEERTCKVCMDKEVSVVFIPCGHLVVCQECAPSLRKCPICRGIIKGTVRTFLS
As for `CN[C@@H](C)C(=O)N[C@H]1CCS[C@H]2CC[C@H](C(=O)N[C@@H]3CCCc4ccccc43)N2C1=O`, the IC50 is 1000 nM.
For `CN[C@@H](C)C(=O)N[C@H]1CCS(=O)(=O)[C@H]2CC(C)(C)[C@@H](C(=O)N[C@@H]3CCCc4ccccc43)N2C1=O`, the IC50 was > 100000 nM (inactive).
Take `CN[C@@H](C)C(=O)N[C@H]1CCO[C@H]2CCC(C(=O)N[C@H]3CCCc4ccccc43)N2C1=O` (some centres not stated): the IC50 was 72 nM.
For `CN[C@@H](C)C(=O)N[C@H]1Cc2c([nH]c3ccccc23)[C@H]2CCC(C(=O)N[C@@H]3CCCc4ccccc43)N2C1=O` (some centres not stated), the IC50 is 93 nM.
With `CN[C@@H](C)C(=O)N[C@@H]1C(=O)N2C(C(=O)Nc3cccc4ccccc34)CC[C@@H]2O[C@@H]1C` (some centres not stated), the IC50 was 78 nM.
On to `CN[C@@H](C)C(=O)N[C@H]1CCO[C@H]2CC[C@@H](C(=O)Nc3cccc4ccccc34)N2C1=O`, for which the IC50 is 47 nM.
As for `CN[C@@H](C)C(=O)N[C@H]1Cc2cc(O)ccc2[C@H]2CC(C)(C)C(C(=O)N[C@@H]3CCCc4ccccc43)N2C1=O` (some centres not stated), the IC50 result was “inactive”.
For `CN[C@@H](C)C(=O)N[C@H]1CCCN[C@H]2CCC(C(=O)N[C@H]3CCCc4ccccc43)N2C1=O` (some centres not stated), the IC50 is 789 nM.
Take `CN[C@@H](C)C(=O)N[C@H]1CCO[C@H]2CC[C@@H](C(=O)N[C@@H]3CCCc4ccccc43)N2C1=O`: the IC50 was 740 nM.
Next, `CN[C@@H](C)C(=O)N[C@H]1CCS[C@H]2CC[C@@H](C(=O)N[C@@H]3CCCc4ccccc43)N2C1=O`: 140 nM.
As for `CN[C@@H](C)C(=O)N[C@H]1Cc2cccc(O)c2[C@H]2CC(C)(C)C(C(=O)N[C@@H]3CCCc4ccccc43)N2C1=O` (some centres not stated), the figure is 14900 nM; as for `CN[C@@H](C)C(=O)N[C@H]1CCCN[C@H]2CCC(C(=O)Nc3cccc4ccccc34)N2C1=O` (some centres not stated), 21100 nM; as for `CN[C@@H](C)C(=O)N[C@H]1CCN[C@H]2CCC(C(=O)N[C@@H]3CCCc4ccccc43)N2C1=O` (some centres not stated), 113 nM.
With `CN[C@@H](C)C(=O)N[C@H]1CCO[C@H]2CC(C)(C)[C@@H](C(=O)N[C@@H]3CCCc4ccccc43)N2C1=O`, the IC50 is 210 nM.
As for `CN[C@@H](C)C(=O)N[C@H]1CCS[C@H]2CCC(C(=O)N[C@H]3CCCc4ccccc43)N2C1=O` (some centres not stated), the figure is 157 nM; as for `CN[C@@H](C)C(=O)N[C@H]1CCS(=O)(=O)[C@H]2CC[C@H](C(=O)N[C@@H]3CCCc4ccccc43)N2C1=O`, > 100000 nM (inactive); as for `CN[C@@H](C)C(=O)N[C@H]1CCO[C@H]2CCC(C(=O)Nc3cccc4ccccc34)N2C1=O` (some centres not stated), 263 nM.
For the molecule `CN[C@@H](C)C(=O)N[C@H]1CCS(=O)(=O)[C@H]2CC[C@@H](C(=O)N[C@@H]3CCCc4ccccc43)N2C1=O`, the IC50 is 11600 nM.
As for `CN[C@@H](C)C(=O)N[C@H]1CCO[C@H]2CCC(C(=O)NC(c3ccccc3)c3ccccc3)N2C1=O` (some centres not stated), the figure is 294 nM; as for `CN[C@@H](C)C(=O)N[C@H]1CC(=O)N[C@H]2CC(C)(C)C(C(=O)N[C@@H]3CCCc4ccccc43)N2C1=O` (some centres not stated), 2000 nM and 1790 nM; as for `CN[C@@H](C)C(=O)N[C@H]1CCCN(C(C)=O)C2CCC(C(=O)N[C@H]3CCCc4ccccc43)N2C1=O` (some centres not stated), 272 nM and 37 nM.
Turning to `CN[C@@H](C)C(=O)N[C@H]1CCO[C@H]2CC(C)(C)C(C(=O)Nc3ccccc3SSc3ccccc3NC(=O)C3N4C(=O)[C@@H](NC(=O)[C@H](C)NC)CCO[C@H]4CC3(C)C)N2C1=O` (some centres not stated), the IC50 is 505 nM.
Take `CN[C@@H](C)C(=O)N[C@H]1CCO[C@H]2CC[C@H](C(=O)N[C@@H]3CCOc4ccccc43)N2C1=O`: the IC50 is > 100000 nM (inactive).
Take `CN[C@@H](C)C(=O)N[C@H]1CCO[C@H]2CC[C@H](C(=O)n3ccc4ccccc43)N2C1=O`: the IC50 is 147 nM.
With `CC(=O)N(C)[C@@H](C)C(=O)N[C@H]1CCCN(C(C)=O)[C@H]2CCC(C(=O)Nc3cccc4ccccc34)N2C1=O` (some centres not stated), the IC50 is 6850 nM.
As for `CN[C@@H](C)C(=O)N[C@@H]1C(=O)N2C(C(=O)NC(c3ccccc3)c3ccccc3)CC[C@@H]2O[C@@H]1C` (some centres not stated), the figure is 235 nM; as for `CN[C@@H](C)C(=O)N[C@H]1CCO[C@H]2CC[C@@H](C(=O)N[C@@H]3CCOc4ccccc43)N2C1=O`, 1300 nM; as for `CN[C@@H](C)C(=O)N[C@H]1CCSC2CCCC(C(=O)N[C@@H]3CCCc4ccccc43)N2C1=O` (some centres not stated), 363 nM and 2520 nM and 605 nM.
Regarding `CN[C@@H](C)C(=O)N[C@H]1CCO[C@H]2c3ccccc3C(C(=O)N[C@@H]3CCCc4ccccc43)N2C1=O` (some centres not stated), the IC50 was 8440 nM.
With `CN[C@@H](C)C(=O)N[C@H]1Cc2cc(O)c(O)cc2[C@H]2CC(C)(C)C(C(=O)N[C@@H]3CCCc4ccccc43)N2C1=O` (some centres not stated), the IC50 is > 100000 nM (inactive).
As for `CN[C@@H](C)C(=O)N[C@H]1CCO[C@H]2CC[C@@H](C(=O)n3ccc4ccccc43)N2C1=O`, the figure is 1210 nM; as for `CN[C@@H](C)C(=O)N[C@H]1CCO[C@H]2CC3(CCCC3)C(C(=O)N[C@@H]3CCCc4ccccc43)N2C1=O` (some centres not stated), 1350 nM.
